Experimental data published in the NIST ThermoML archive (doi:10.1016/j.tca.2010.08.002).
± gives the expanded uncertainty stated by the source.

Assay: Molar enthalpy of transition or fusion
Details: Adiabatic calorimetry

SMILES: CCCCn1cc[n+](C)c1.O=S(=O)([O-])C(F)(F)F [1-butyl-3-methylimidazolium trifluoromethanesulfonate]
- Molar enthalpy of transition or fusion (Crystal 1): 19.43 ± 0.04 kJ/mol
- Molar enthalpy of transition or fusion (Crystal 2): 0.013 ± 0.001 kJ/mol
